Test results published in patent US12293809B2, “Workflow for generating compounds with biological activity against a specific biological target” (INSILICO MEDICINE IP LIMITED, priority 2019, dated 2025).
≈ marks a conversion by molar mass, not a printed value. Read-outs that look alike come from different tables or passages of the source.

Assays:
hDDR1 = hDDR1 (Homo sapiens, UniProt Q08345); assay: KinaseProfiler radiometric biochemical kinase assay (Eurofins); parameters: purchased Eurofins 14-942KP10
Sequence of hDDR1 (Q08345 19-913): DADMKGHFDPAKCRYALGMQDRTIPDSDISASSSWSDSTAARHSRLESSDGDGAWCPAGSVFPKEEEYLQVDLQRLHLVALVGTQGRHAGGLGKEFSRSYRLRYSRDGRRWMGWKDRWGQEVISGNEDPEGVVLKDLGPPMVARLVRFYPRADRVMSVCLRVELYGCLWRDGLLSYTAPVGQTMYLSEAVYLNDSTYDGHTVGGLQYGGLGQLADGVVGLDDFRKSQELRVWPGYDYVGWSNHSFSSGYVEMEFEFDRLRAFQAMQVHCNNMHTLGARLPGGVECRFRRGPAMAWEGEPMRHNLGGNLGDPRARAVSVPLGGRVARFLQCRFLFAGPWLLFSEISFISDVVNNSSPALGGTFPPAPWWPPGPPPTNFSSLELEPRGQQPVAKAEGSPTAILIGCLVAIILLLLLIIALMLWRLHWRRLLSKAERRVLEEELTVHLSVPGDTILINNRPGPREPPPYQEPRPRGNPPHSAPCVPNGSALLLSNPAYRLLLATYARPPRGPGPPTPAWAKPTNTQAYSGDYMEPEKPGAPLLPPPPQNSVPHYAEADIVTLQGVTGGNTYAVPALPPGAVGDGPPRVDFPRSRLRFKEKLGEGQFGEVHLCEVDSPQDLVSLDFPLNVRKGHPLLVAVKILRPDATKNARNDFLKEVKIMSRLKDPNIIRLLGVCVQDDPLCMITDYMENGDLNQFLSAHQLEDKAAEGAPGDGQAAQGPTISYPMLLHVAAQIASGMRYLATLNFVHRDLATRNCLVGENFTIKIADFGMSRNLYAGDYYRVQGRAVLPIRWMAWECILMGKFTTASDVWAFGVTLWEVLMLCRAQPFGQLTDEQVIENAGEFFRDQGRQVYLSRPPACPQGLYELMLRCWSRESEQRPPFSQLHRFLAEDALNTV
Method: The experimental procedures were performed by Eurofins. The activity of the molecules against hDDR1 and hDDR2 kinases was assessed using KinaseProfiler^67. […] The enzymatic reaction processed in the presence of Mg^2+ cations and ATP at room temperature for 40 minutes and terminated by addition of phosphoric acid. […] All the compounds were prepared in 100% DMSO. […] The biological evaluation of selectivity against non-target kinases was performed in Dundee Eurofins, using Scan Max Delta Panel [10 μM ATP] KinaseProfiler^68.

log D 7.4 = type: physicochemical; settings: TFA salt
Method: (§1) Since Compound 2 contains an imidazolidine fragment typically unusual in drug discovery we experimentally assessed key properties for this molecule. […] The inhibition activity of Compounds 1 and 2 towards a small panel of key cytochrome P450 (CYP450) isoforms was also assessed in vitro (Table 2).

pKa = type: physicochemical
Method: as §1

CYP1A2 = biological target: T1, CYP1A2 (Homo sapiens, UniProt P05177); assay: Cytochrome inhibition in HLM; type: in vitro ADME
T1 construct: from tissue; host or cells: human liver microsomes (HLM)
T1 sequence (P05177 1-516): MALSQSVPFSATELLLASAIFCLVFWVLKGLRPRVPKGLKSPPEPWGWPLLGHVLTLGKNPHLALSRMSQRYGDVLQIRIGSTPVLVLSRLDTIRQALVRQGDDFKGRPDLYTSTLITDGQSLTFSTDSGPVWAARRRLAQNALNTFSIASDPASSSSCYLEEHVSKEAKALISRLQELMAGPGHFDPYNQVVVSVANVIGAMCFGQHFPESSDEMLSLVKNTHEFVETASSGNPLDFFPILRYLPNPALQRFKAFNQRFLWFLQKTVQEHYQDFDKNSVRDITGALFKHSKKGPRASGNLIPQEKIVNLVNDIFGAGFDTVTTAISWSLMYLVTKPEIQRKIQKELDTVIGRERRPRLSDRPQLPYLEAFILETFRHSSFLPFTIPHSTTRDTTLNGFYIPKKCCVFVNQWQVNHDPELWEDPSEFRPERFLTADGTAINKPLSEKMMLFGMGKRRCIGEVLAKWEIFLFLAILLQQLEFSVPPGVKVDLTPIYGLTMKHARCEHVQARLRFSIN
Method: Water used in the assay and analysis was purified by ELGA Lab purification systems. Potassium phosphate buffer (PB) in concentration of 100 mM and MgCl2 in concentration of 33 mM were used. […] Microsomes were pulled out of the −80° C. freezer to thaw on ice, labeled the date and put back to freezer immediately after using. 20 μL of the substrates solutions were added to corresponding wells. 20 μL PB were added to Blank wells. 2 μL of the test compounds and positive control working solution were added to corresponding wells. Then, HLM working solution was prepared. 158 μL of the HLM working solution was added to all wells of incubation plate. The plate was pre-warmed for about 10 min at 37° C. water bath. Then, NADPH cofactor solution was prepared. 20 μL NADPH cofactor was added to all incubation wells. The solution was mixed and incubated for 10 minutes at 37° C. water bath. At the time point, the reaction was terminated by adding 400 μL cold stop solution (200 ng/mL Tolbutamide and 200 ng/mL Labetalol in ACN). The samples were centrifuged at 4000 rpm for 20 minutes to precipitate protein. 200 μL supernatant was transferred to 100 μL HPLC water and shaken for 10 min. XL fit was used to plot the percent of vehicle control versus the test compound concentrations, and for non-linear regression analysis of the data.

Kinetic solubility = type: physicochemical; settings: pH=7.4
Method: as §1

[1] = tested on: α-actin (α-SMA) production in LX-2 cells; assay: LX-2 fibrosis assay, TGF-β stimulated (Western blot); type: cell-based, human; settings: 14 nM
Method: Collagen α1, α-SMA, CTGF and GAPDH were traced using Western blot analysis.
After 20 h growth in the reduced serum medium, the cells were treated with indicated doses of compounds for 30 minutes.

[2] = 10 μM
Method: Test compounds (at 10 μM) were incubated at 25° C. with 50 mM phosphate buffer, pH=7.4 and 8 mM MOPS pH 7.0, 0.2 mM EDTA, pH=7.0. Duplicate samples were used. […] Curcumin was used as positive control in this assay at neutral-basic condition. Samples were analyzed by LC/MS/MS, disappearance of test compound was assessed based on peak area ratios of analyte/IS (no standard curve).

Thermodynamic solubility = type: physicochemical
Method: as §1

LX-2 cells = assay: Cytotoxicity, CellTiter-Glo cell viability assay; type: cell-based, human; settings: 72 h
Method: LX-2 cells were seeded into 96 well plates in the presence of a compound and allowed to grow for 72 h before CellTiter-Glo® Luminescent Cell Viability Assay was carried out according the manufacturer's instruction.

[3] = Mouse PK study, IV administration; type: in vivo; settings: IV 10 mg/kg, M01-M03 individual
[4] = Mouse PK study, PO administration; type: in vivo
[5] = PO 15 mg/kg, M04-M06 individual, c4 Mean ± SD, 15 mg/kg, mean

**Q.** Which “activity against DDR1 kinase (in words)” value (hDDR1) does the source give for `O=C(Nc1cccc(C(=O)N2CCN(c3ccnc4[nH]ccc34)C2)c1)c1cccc(C(F)(F)F)c1` [Compound 2] here?
**A.** The value was “low nanomolar range”.

**Q.** And the “LE** = 1.4*(pIC50)/N” value (hDDR1; N number of heavy atoms)?
**A.** The value was 0.31.

**Q.** What about the IC50 (hDDR1; read-out: IC50, inhibition of DDR1 activity) of the same compound?
**A.** The IC50 was 0.021 µM.

**Q.** And the “log D 7.4” value (log D 7.4)?
**A.** Its value is 4.07.

**Q.** And the pKa (pKa)?
**A.** The pKa was 6.99.

**Q.** And the IC50 (CYP1A2)?
**A.** Its IC50 is 10.6 µM.

**Q.** What about the kinetic solubility (Kinetic solubility) of the same compound?
**A.** Its kinetic solubility is 1.09 µg/mL (≈ 2.27 µM).

**Q.** And the “inhibition of α-SMA” value [1]?
**A.** The value was 15%.

**Q.** And the “% Remain” value ([2]; 8 mM MOPS pH 7.0, 0.2 mM EDTA, pH 7.0, 0 min)?
**A.** The value was 100.00%.

**Q.** What about the “% Remain” value ([2]; 8 mM MOPS pH 7.0, 0.2 mM EDTA, pH 7.0, 120 min) of the same compound?
**A.** Its value is 101.41%.

**Q.** What about the “% Remain” value ([2]; 8 mM MOPS pH 7.0, 0.2 mM EDTA, pH 7.0, 240 min) of the same compound?
**A.** The value was 103.81%.

**Q.** What about the “% Remain” value ([2]; 8 mM MOPS pH 7.0, 0.2 mM EDTA, pH 7.0, 360 min) of the same compound?
**A.** The value was 106.18%.

**Q.** What about the “% Remain” value ([2]; 8 mM MOPS pH 7.0, 0.2 mM EDTA, pH 7.0, 1440 min) of the same compound?
**A.** The value was 105.37%.

**Q.** And the “% Remain” value ([2]; 50 mM phosphate buffer, pH 7.4, 0 min)?
**A.** Its value is 100.00%.

**Q.** What about the “% Remain” value ([2]; 50 mM phosphate buffer, pH 7.4, 120 min) of the same compound?
**A.** The value was 100.65%.

**Q.** What about the “% Remain” value ([2]; 50 mM phosphate buffer, pH 7.4, 240 min) of the same compound?
**A.** The value was 97.05%.

**Q.** And the “% Remain” value ([2]; 50 mM phosphate buffer, pH 7.4, 360 min)?
**A.** Its value is 100.07%.

**Q.** What about the “% Remain” value ([2]; 50 mM phosphate buffer, pH 7.4, 1440 min) of the same compound?
**A.** Its value is 107.23%.

**Q.** And the thermodynamic solubility (Thermodynamic solubility)?
**A.** Its thermodynamic solubility is under 0.59 µg/mL.

**Q.** What about the CC50 (LX-2 cells) of the same compound?
**A.** The CC50 was 7.3 µM.

**Q.** Which IC50 (CYP1A2) does the source give for `Cc1ccc2c(Nc3cccc(C(F)(F)F)c3)noc2c1C#Cc1cnc2cccnn12` [Compound 1] here?
**A.** The IC50 was 7.36 µM.

**Q.** And the CC50 (LX-2 cells)?
**A.** The CC50 was 3.3 µM.

**Q.** And the Tlast ([3]; c4 Mean)?
**A.** The Tlast was 24.0 ± — h.

**Q.** And the AUC0-inf ([3]; c4 Mean ± SD)?
**A.** The AUC0-inf was 6888 ± 359 ng·h/mL.

**Q.** What about the AUC0-last ([3]; c4 Mean ± SD) of the same compound?
**A.** The AUC0-last was 6830 ± 349 ng·h/mL.

**Q.** And the AUCExtra ([3]; c4 Mean ± SD)?
**A.** Its AUCExtra is 0.845 ± 0.104%.

**Q.** What about the AUMCExtra ([3]; c4 Mean ± SD) of the same compound?
**A.** The AUMCExtra was 5.42 ± 0.663%.

**Q.** What about the C0 ([3]; c4 Mean ± SD) of the same compound?
**A.** Its C0 is 2598 ± 572 ng/mL.

**Q.** What about the Cl ([3]; c4 Mean ± SD) of the same compound?
**A.** The Cl was 19.1 ± 0.970 mL/min/kg.

**Q.** What about the MRT0-inf ([3]; c4 Mean ± SD) of the same compound?
**A.** Its MRT0-inf is 4.56 ± 0.193 h.

**Q.** What about the MRT0-last ([3]; c4 Mean ± SD) of the same compound?
**A.** The MRT0-last was 4.35 ± 0.187 h.

**Q.** What about the T1/2 ([3]; c4 Mean ± SD) of the same compound?
**A.** Its T1/2 is 3.65 ± 0.123 h.

**Q.** And the Vdss ([3]; c4 Mean ± SD)?
**A.** Its Vdss is 5.21 ± 0.349 L/kg.

**Q.** What about the Bioavailability ([4]; PO 15 mg/kg vs IV 10 mg/kg, calculated using AUC0-inf) of the same compound?
**A.** The Bioavailability was 17.8 ± — %.

**Q.** What about the AUC0-inf [4, 5] of the same compound?
**A.** Its AUC0-inf is 1911 ± 94.3 ng·h/mL.

**Q.** What about the AUC0-last [4, 5] of the same compound?
**A.** The AUC0-last was 1896 ± 93.7 ng·h/mL.

**Q.** What about the AUCExtra [4, 5] of the same compound?
**A.** Its AUCExtra is 0.787 ± 0.278%.

**Q.** And the AUMCExtra [4, 5]?
**A.** Its AUMCExtra is 4.01 ± 1.60%.

**Q.** And the Cmax [4, 5]?
**A.** The Cmax was 276 ± 75.4 ng/mL.

**Q.** And the MRT0-inf [4, 5]?
**A.** Its MRT0-inf is 5.73 ± 0.999 h.

**Q.** What about the MRT0-last [4, 5] of the same compound?
**A.** Its MRT0-last is 5.54 ± 1.000 h.

**Q.** And the T1/2 [4, 5]?
**A.** Its T1/2 is 3.29 ± 0.278 h.

**Q.** And the Tmax [4, 5]?
**A.** Its Tmax is 2.33 ± 1.53 h.

**Q.** And the Tlast ([4]; PO 15 mg/kg, M04-M06 individual, c4 Mean, 15 mg/kg, mean)?
**A.** The Tlast was 24.0 ± — h.
